Results as given in US20250144107A1, “USE OF A PIKFYVE INHIBITOR IN COMBINATION WITH IMMUNOTHERAPY” (The Regents of the University of Michigan, priority 2023, published 2025).

Experiments:
[1] = tested on: IL-12 in cDCs; experiment: Il12b RT-qPCR and IL-12 ELISA in cDCs; format: cell-based, mice
Procedure: FIG. 21E is a bar graph comparison of Il12b expression fold change by RT-qPCR in apilimod vs. DMSO-treated, 3 or 12 hours, cDCs after 6 days of culture.
FIG. 21F is a bar graph comparison of IL-12p40 protein levels by ELISA in media from apilimod vs. DMSO-treated, 12 hours, cDCs after 6 days of culture.
FIG. 21G is a bar graph Supp. 5 g Comparison of IL-12p70 protein levels by ELISA in media from apilimod vs. DMSO-treated, 24 hours, cDCs after 6 days of culture.

[2] = tested on: subcutaneous tumors derived from OVA-expressing B16-F10 cells; experiment: Adoptive cell therapy in subcutaneous B16-F10-OVA tumor model; format: in vivo, mice; details: combination with ACT
Source text: FIG. 10A is an experimental timeline of the efficacy against subcutaneous ovalbumin-expressing B16-F10 (B16-F10-OVA) tumors treated with adoptive cell therapy (ACT) in combination with apilimod or ESK981.
FIG. 10B is a series of 6 line graphs showing the growth of subcutaneous ovalbumin-expressing B16-F10 (B16-F10-OVA) tumors treated with adoptive cell therapy (ACT) in combination with apilimod or ESK981.
FIG. 10C is a line graph of the survival of mice with subcutaneous ovalbumin-expressing B16-F10 (B16-F10-OVA) tumors treated with adoptive cell therapy (ACT) in combination with apilimod or ESK981.
All experimental protocols were conducted after approval by the U-M Institutional Animal Care & Use Committee. […] KPC1361 cells were resuspended in PBS, 1:1 (v/v) mixed with Matrigel (BD Biosciences; catalog #: 354248), and orthotopically injected to the pancreases at 250,000 cells in a total volume of 50 μl per injection. B16-F10 cells were resuspended in PBS and injected subcutaneously to both flanks at 400,000 cells per injection. For ACT study, B16-F10-OVA cells were resuspended in PBS and injected subcutaneously to both flanks at 300,000 cells per injection. For lung metastasis experiment, B16-BL6 cells were resuspended in PBS, 1:1 (v/v) mixed with Matrigel and injected subcutaneously to both flanks at 400,000 cells per injection. Fifteen days after tumor cell inoculation, the primary tumors were removed surgically under anesthesia. Thirty-five days after removal of the primary tumors, lung tissues were extracted and fixed, and lung metastasis was quantified. C57BL/6 mice were acquired from The Jackson Laboratory. Measurement of tumor volume began 5-9 days post tumor cell implantation and was performed 2-3 times per week using calipers. Volume measurements of pancreatic tumors were also achieved with calipers, as reported See, e.g., Koikawa, K. et al., Cell 2021; 184(18):4753-4771. In brief, mice were subjected to anesthesia with 2-3% isoflurane, and the abdominal wall then became soft and loose. The mouse was next held with the left hand allowing for the palpation and assessment of the firm pancreatic tumor mass with the right hand. […] Volume (mm^3) of tumor was calculated using (W^2×L)/2, where W stood for minor tumor axis and L for the major. All mice were maintained in a pathogen-free condition, with a 12-hour light/dark cycle.
For ICB treatment in KPC1361 pancreatic tumor-bearing mice, randomization was performed when tumors reached approximately 100 mm^3. For ACT and vaccine experiments, the mice were randomized when tumors reached approximately 35 mm^3. Anti-mouse PD-1 (clone RMP1-14) and its isotype control were purchased from BioXcell, administered intraperitoneally at 250 μg per mouse, biweekly. […]

[3] = tested on: KPC1361 cells; experiment: MHC-I surface expression in Pikfyve-wildtype, Pikfyve-null, Atg5-null or Atg7-null cells; format: cell-based, mouse; details: on-target test
Source text: FIG. 1F (Left) is line graphs of flow cytometry measuring MHC-I surface expression in KPC1361 cells with or without Pikfyve KO, treated with DMSO, Bafilomycin, chloroquine, Apilimod, or ESK981; (Right) is bar graphs of quantification of flow cytometry measuring MHC-I surface expression in KPC1361 cells with or without Pikfyve KO, treated with DMSO, Bafilomycin, chloroquine, Apilimod, or ESK981.
FIG. 1G (Left) is a line graph of flow cytometry measuring MHC-I surface expression in KPC1361 cells with non-targeting single-guide RNA (control), or single-guide RNAs depleting Atg5 or Atg7, treated with DMSO or Apilimod; (Right) is a bar graph of quantification of flow cytometry measuring MHC-I surface expression in KPC1361 cells with non-targeting single-guide RNA (control), or single-guide RNAs depleting Atg5 or Atg7, treated with DMSO or Apilimod.
Cancer cells or the OVA-expressing cancer cells treated in vitro were harvested from dishes, resuspended in buffer MACS (PBS containing 2% FBS and 2 mM EDTA), and stained with Zombie NIR™ Fixable Viability kit (BioLegend: #423106) and fluorophore-conjugated antibody against MHC-I or PE-conjugated antibody against SIINFEKL bound H-2Kb (BioLegend; catalog #141604), respectively. The cells were next washed twice with 1 ml MACS and fixed with 2% paraformaldehyde in PBS for 15 minutes at room temperature. The cells were then subjected to the flow cytometer (SONY SH800S) for measuring surface expression of MHC-I or SIINFEKL bound H-2Kb, respectively. Antibodies used in this study include anti-H-2Kb (BD Biosciences; catalog #553570) and anti-H-2Db (28-14-8; Thermo Fisher Scientific; catalog #12-5999-82) for KPC1361 and B16-F10, anti-H-2Kd (BD Biosciences; catalog #562004) and anti-H-2Dd (BD Biosciences; catalog #553580) for 4T1, anti-H-2Kq (BD Biosciences; catalog #742296) and anti-H-2Dq/H-2Lq (BD Biosciences; catalog #744853) for MyC-CaP, and anti-HLA-A,B,C (clone w6/32; BioLegend; catalog #311406) for human cancer cells.

| Compound | secretion of IL-12p40 ([1]; ELISA) | secretion of IL-12p70 ([1]; ELISA) | Il12b transcripts ([1]; RT-qPCR) | efficacy of the ACT [2] | survival of the animals [2] | upregulation of MHC-I surface expression, Pikfyve-wildtype vs Pikfyve-null cells [3] |
| --- | --- | --- | --- | --- | --- | --- |
| Cc1cccc(/C=N/Nc2cc(N3CCOCC3)nc(OCCc3ccccn3)n2)c1 [apilimod, N-[(E)-(3-methylphenyl)methylideneamino]-6-morpholin-4-yl-2-(2-pyridin-2-ylethoxy)pyrimidin-4-amine] | increased | increased | increased | strikingly enhanced | significantly extending survival | only observed in the wildtype cells but not Pikfyve-null cells |
| CC(C)Cn1c2ccc(Nc3ncccn3)cc2c2c3c(c4c(c21)CCc1nn(C)cc1-4)C(=O)NC3 [ESK981, 13-isobutyl-4-methyl-10-(pyrimidin-2-ylamino)-1,2,4,7,8,13-hexahydro-6H-indazolo[5,4-a]pyrrolo[3,4-c]carbazol-6-one] |  |  |  | strikingly enhanced | significantly extending survival | only observed in the wildtype cells but not Pikfyve-null cells |
